{"source": "PubChem BioAssay AID2060887", "about": "(Molecular Pharmacology Branch, DTP, NCI, 2025)", "system": "782815-120-R-J1-PDC complex spheroid viability", "test": "Anticancer human tumor 782815-120-R-J1-PDC patient-derived colon adenocarcinoma cell line growth inhibition [RAS]", "conditions": "for viability, T/C: stronger effect = lower value", "how_it_was_run": "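Agents were tested in combination matrices in half-log decrements from a top concentration at or near clinical Cmax (10 microM if undetermined). Targets were multi-cell spheroids of tumour lines plus HUVEC and MSC stromal cells.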"}
{"compound": "NC1c2ccccc2OC12CCN(c1cnc3c(N4CCCc5ncccc54)n[nH]c3n1)CC2", "note": "(stereo unspecified) + C=CC(=O)N1CCN(c2nc(OCC3CCCN3C)nc3c(F)c(-c4nc(N)cc(C)c4C(F)(F)F)c(Cl)cc23)C(C)C1;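 note: spheroids exposed to compounds for 7 days before reading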;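 for viability, T/C: 100% = DMSO vehicle control viability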", "values": [{"measurement": "IC50", "setting": "curve of first compound, second compound 0.00316 µM", "result": "> 10000", "unit": "nM"}, {"measurement": "IC50", "setting": "curve of first compound, second compound 0.01 µM", "result": "> 10000", "unit": "nM"}, {"measurement": "IC50", "setting": "curve of first compound, second compound 0.0316 µM", "result": "> 10000", "unit": "nM"}, {"measurement": "IC50", "setting": "curve of first compound, second compound 0.1 µM", "result": "> 10000", "unit": "nM"}, {"measurement": "IC50", "setting": "curve of first compound, second compound 0.316 µM", "result": "> 10000", "unit": "nM"}, {"measurement": "IC50", "setting": "curve of first compound, second compound 1 µM", "result": "> 10000", "unit": "nM"}, {"measurement": "viability, T/C", "setting": "second compound 0.00316 µM, first compound 0.0316 µM", "result": 94.4, "unit": "%"}, {"measurement": "viability, T/C", "setting": "second compound 0.00316 µM, first compound 0.1 µM", "result": 110, "unit": "%"}, {"measurement": "viability, T/C", "setting": "second compound 0.00316 µM, first compound 0.316 µM", "result": 95.4, "unit": "%"}, {"measurement": "viability, T/C", "setting": "second compound 0.00316 µM, first compound 1 µM", "result": 93.8, "unit": "%"}, {"measurement": "viability, T/C", "setting": "second compound 0.00316 µM, first compound 3.16 µM", "result": 98.2, "unit": "%"}, {"measurement": "viability, T/C", "setting": "second compound 0.00316 µM, first compound 10 µM", "result": 84.4, "unit": "%"}, {"measurement": "viability, T/C", "setting": "second compound 0.01 µM, first compound 0.0316 µM", "result": 98.4, "unit": "%"}, {"measurement": "viability, T/C", "setting": "second compound 0.01 µM, first compound 0.1 µM", "result": 95.6, "unit": "%"}, {"measurement": "viability, T/C", "setting": "second compound 0.01 µM, first compound 0.316 µM", "result": 89, "unit": "%"}, {"measurement": "viability, T/C", "setting": "second compound 0.01 µM, first compound 1 µM", "result": 91.3, "unit": "%"}, {"measurement": "viability, T/C", "setting": "second compound 0.01 µM, first compound 3.16 µM", "result": 93.8, "unit": "%"}, {"measurement": "viability, T/C", "setting": "second compound 0.01 µM, first compound 10 µM", "result": 82.8, "unit": "%"}, {"measurement": "viability, T/C", "setting": "second compound 0.0316 µM, first compound 0.0316 µM", "result": 96.4, "unit": "%"}, {"measurement": "viability, T/C", "setting": "second compound 0.0316 µM, first compound 0.1 µM", "result": 107, "unit": "%"}, {"measurement": "viability, T/C", "setting": "second compound 0.0316 µM, first compound 0.316 µM", "result": 98.3, "unit": "%"}, {"measurement": "viability, T/C", "setting": "second compound 0.0316 µM, first compound 1 µM", "result": 100, "unit": "%"}, {"measurement": "viability, T/C", "setting": "second compound 0.0316 µM, first compound 3.16 µM", "result": 99.7, "unit": "%"}, {"measurement": "viability, T/C", "setting": "second compound 0.0316 µM, first compound 10 µM", "result": 71.9, "unit": "%"}, {"measurement": "viability, T/C", "setting": "second compound 0.1 µM, first compound 0.0316 µM", "result": 95.1, "unit": "%"}, {"measurement": "viability, T/C", "setting": "second compound 0.1 µM, first compound 0.1 µM", "result": 105, "unit": "%"}, {"measurement": "viability, T/C", "setting": "second compound 0.1 µM, first compound 0.316 µM", "result": 91.7, "unit": "%"}, {"measurement": "viability, T/C", "setting": "second compound 0.1 µM, first compound 1 µM", "result": 107, "unit": "%"}, {"measurement": "viability, T/C", "setting": "second compound 0.1 µM, first compound 3.16 µM", "result": 95.8, "unit": "%"}, {"measurement": "viability, T/C", "setting": "second compound 0.1 µM, first compound 10 µM", "result": 79.7, "unit": "%"}, {"measurement": "viability, T/C", "setting": "second compound 0.316 µM, first compound 0.0316 µM", "result": 98, "unit": "%"}, {"measurement": "viability, T/C", "setting": "second compound 0.316 µM, first compound 0.1 µM", "result": 90.9, "unit": "%"}, {"measurement": "viability, T/C", "setting": "second compound 0.316 µM, first compound 0.316 µM", "result": 88.5, "unit": "%"}, {"measurement": "viability, T/C", "setting": "second compound 0.316 µM, first compound 1 µM", "result": 100, "unit": "%"}, {"measurement": "viability, T/C", "setting": "second compound 0.316 µM, first compound 3.16 µM", "result": 94.3, "unit": "%"}, {"measurement": "viability, T/C", "setting": "second compound 0.316 µM, first compound 10 µM", "result": 74.6, "unit": "%"}, {"measurement": "viability, T/C", "setting": "second compound 1 µM, first compound 0.0316 µM", "result": 108, "unit": "%"}, {"measurement": "viability, T/C", "setting": "second compound 1 µM, first compound 0.1 µM", "result": 86.4, "unit": "%"}, {"measurement": "viability, T/C", "setting": "second compound 1 µM, first compound 0.316 µM", "result": 103, "unit": "%"}, {"measurement": "viability, T/C", "setting": "second compound 1 µM, first compound 1 µM", "result": 93.3, "unit": "%"}, {"measurement": "viability, T/C", "setting": "second compound 1 µM, first compound 3.16 µM", "result": 91.8, "unit": "%"}, {"measurement": "viability, T/C", "setting": "second compound 1 µM, first compound 10 µM", "result": 77.8, "unit": "%"}]}
{"compound": "CCc1c2c(nc3ccc(O)cc13)-c1cc3c(c(=O)n1C2)COC(=O)[C@]3(O)CC", "note": "+ CCn1c(-c2cccnc2C(C)OC)c2c3cc(ccc31)N1CCOC(CC(NC(=O)C(C(C)C)N(C)C(=O)C3(F)CCN(C(=O)C#CC(C)(C)N(C)C)CC3)C(=O)N3CCCC(N3)C(=O)OCC(C)(C)C2)C1", "values": [{"measurement": "IC50", "setting": "curve of first compound, second compound 0.000949 µM", "result": 3.67, "unit": "nM"}, {"measurement": "IC50", "setting": "curve of first compound, second compound 0.003 µM", "result": 3.95, "unit": "nM"}, {"measurement": "IC50", "setting": "curve of first compound, second compound 0.00949 µM", "result": 3.98, "unit": "nM"}, {"measurement": "IC50", "setting": "curve of first compound, second compound 0.03 µM", "result": 2.91, "unit": "nM"}, {"measurement": "IC50", "setting": "curve of first compound, second compound 0.0949 µM", "result": 3.69, "unit": "nM"}, {"measurement": "IC50", "setting": "curve of first compound, second compound 0.3 µM", "result": 3.26, "unit": "nM"}, {"measurement": "viability, T/C", "setting": "second compound 0.000949 µM, first compound 0.000949 µM", "result": 84, "unit": "%"}, {"measurement": "viability, T/C", "setting": "second compound 0.000949 µM, first compound 0.003 µM", "result": 56.1, "unit": "%"}, {"measurement": "viability, T/C", "setting": "second compound 0.000949 µM, first compound 0.00949 µM", "result": 22.1, "unit": "%"}, {"measurement": "viability, T/C", "setting": "second compound 0.000949 µM, first compound 0.03 µM", "result": 8.78, "unit": "%"}, {"measurement": "viability, T/C", "setting": "second compound 0.000949 µM, first compound 0.0949 µM", "result": 2.94, "unit": "%"}, {"measurement": "viability, T/C", "setting": "second compound 0.000949 µM, first compound 0.3 µM", "result": 1.62, "unit": "%"}, {"measurement": "viability, T/C", "setting": "second compound 0.003 µM, first compound 0.000949 µM", "result": 89.9, "unit": "%"}, {"measurement": "viability, T/C", "setting": "second compound 0.003 µM, first compound 0.003 µM", "result": 59.1, "unit": "%"}, {"measurement": "viability, T/C", "setting": "second compound 0.003 µM, first compound 0.00949 µM", "result": 21.3, "unit": "%"}, {"measurement": "viability, T/C", "setting": "second compound 0.003 µM, first compound 0.03 µM", "result": 9.28, "unit": "%"}, {"measurement": "viability, T/C", "setting": "second compound 0.003 µM, first compound 0.0949 µM", "result": 4.83, "unit": "%"}, {"measurement": "viability, T/C", "setting": "second compound 0.003 µM, first compound 0.3 µM", "result": 1.63, "unit": "%"}, {"measurement": "viability, T/C", "setting": "second compound 0.00949 µM, first compound 0.000949 µM", "result": 86.5, "unit": "%"}, {"measurement": "viability, T/C", "setting": "second compound 0.00949 µM, first compound 0.003 µM", "result": 59.2, "unit": "%"}, {"measurement": "viability, T/C", "setting": "second compound 0.00949 µM, first compound 0.00949 µM", "result": 22.6, "unit": "%"}, {"measurement": "viability, T/C", "setting": "second compound 0.00949 µM, first compound 0.03 µM", "result": 11.7, "unit": "%"}, {"measurement": "viability, T/C", "setting": "second compound 0.00949 µM, first compound 0.0949 µM", "result": 3.57, "unit": "%"}, {"measurement": "viability, T/C", "setting": "second compound 0.00949 µM, first compound 0.3 µM", "result": 1.64, "unit": "%"}, {"measurement": "viability, T/C", "setting": "second compound 0.03 µM, first compound 0.000949 µM", "result": 91.9, "unit": "%"}, {"measurement": "viability, T/C", "setting": "second compound 0.03 µM, first compound 0.003 µM", "result": 49.3, "unit": "%"}, {"measurement": "viability, T/C", "setting": "second compound 0.03 µM, first compound 0.00949 µM", "result": 19, "unit": "%"}, {"measurement": "viability, T/C", "setting": "second compound 0.03 µM, first compound 0.03 µM", "result": 10.1, "unit": "%"}, {"measurement": "viability, T/C", "setting": "second compound 0.03 µM, first compound 0.0949 µM", "result": 4.83, "unit": "%"}, {"measurement": "viability, T/C", "setting": "second compound 0.03 µM, first compound 0.3 µM", "result": 1.53, "unit": "%"}, {"measurement": "viability, T/C", "setting": "second compound 0.0949 µM, first compound 0.000949 µM", "result": 82.5, "unit": "%"}, {"measurement": "viability, T/C", "setting": "second compound 0.0949 µM, first compound 0.003 µM", "result": 57, "unit": "%"}, {"measurement": "viability, T/C", "setting": "second compound 0.0949 µM, first compound 0.00949 µM", "result": 18.8, "unit": "%"}, {"measurement": "viability, T/C", "setting": "second compound 0.0949 µM, first compound 0.03 µM", "result": 8.68, "unit": "%"}, {"measurement": "viability, T/C", "setting": "second compound 0.0949 µM, first compound 0.0949 µM", "result": 5.21, "unit": "%"}, {"measurement": "viability, T/C", "setting": "second compound 0.0949 µM, first compound 0.3 µM", "result": 1.73, "unit": "%"}, {"measurement": "viability, T/C", "setting": "second compound 0.3 µM, first compound 0.000949 µM", "result": 86.1, "unit": "%"}, {"measurement": "viability, T/C", "setting": "second compound 0.3 µM, first compound 0.003 µM", "result": 53, "unit": "%"}, {"measurement": "viability, T/C", "setting": "second compound 0.3 µM, first compound 0.00949 µM", "result": 15.4, "unit": "%"}, {"measurement": "viability, T/C", "setting": "second compound 0.3 µM, first compound 0.03 µM", "result": 8.17, "unit": "%"}, {"measurement": "viability, T/C", "setting": "second compound 0.3 µM, first compound 0.0949 µM", "result": 2.87, "unit": "%"}, {"measurement": "viability, T/C", "setting": "second compound 0.3 µM, first compound 0.3 µM", "result": 1.16, "unit": "%"}]}
{"compound": "C#Cc1c(F)ccc2cc(O)cc(-c3ncc4c(N5CC6CCC(C5)N6)nc(OCC56CCCN5CC(F)C6)nc4c3F)c12", "note": "(stereo unspecified)", "values": [{"measurement": "viability, T/C", "setting": "compound 0.0316 µM", "result": "104% [middle of 8 runs]"}, {"measurement": "viability, T/C", "setting": "compound 0.1 µM", "result": "103% [middle of 8 runs]"}, {"measurement": "viability, T/C", "setting": "compound 0.316 µM", "result": "103% [middle of 8 runs]"}, {"measurement": "viability, T/C", "setting": "compound 1 µM", "result": "97.9% [middle of 8 runs]"}, {"measurement": "viability, T/C", "setting": "compound 3.16 µM", "result": "101% [middle of 8 runs]"}, {"measurement": "viability, T/C", "setting": "compound 10 µM", "result": "95% [middle of 8 runs]"}, {"measurement": "IC50", "setting": "compound alone, run of 07/15/2024", "result": "> 10000", "unit": "nM"}]}
